Consider three molecules from PMC4015282, “Transcriptional comparison of the filamentous fungus Neurospora crassa growing on three major monosaccharides D-glucose, D-xylose and L-arabinose” (Biotechnology for Biofuels, 2014).

What all share (assay type): cell-based
Holding throughout (settings): 3 mM sugar; labelled compound

Test [1] addresses T1, GLT-1 (NCU01633) (Neurospora crassa, UniProt Q1K4S3).
T1 construct: cDNA cloned in pRS426 shuttle vector (PGK1 promoter, GFP ORF, CYC1 terminator)
T1 sequence (Q1K4S3 1-532): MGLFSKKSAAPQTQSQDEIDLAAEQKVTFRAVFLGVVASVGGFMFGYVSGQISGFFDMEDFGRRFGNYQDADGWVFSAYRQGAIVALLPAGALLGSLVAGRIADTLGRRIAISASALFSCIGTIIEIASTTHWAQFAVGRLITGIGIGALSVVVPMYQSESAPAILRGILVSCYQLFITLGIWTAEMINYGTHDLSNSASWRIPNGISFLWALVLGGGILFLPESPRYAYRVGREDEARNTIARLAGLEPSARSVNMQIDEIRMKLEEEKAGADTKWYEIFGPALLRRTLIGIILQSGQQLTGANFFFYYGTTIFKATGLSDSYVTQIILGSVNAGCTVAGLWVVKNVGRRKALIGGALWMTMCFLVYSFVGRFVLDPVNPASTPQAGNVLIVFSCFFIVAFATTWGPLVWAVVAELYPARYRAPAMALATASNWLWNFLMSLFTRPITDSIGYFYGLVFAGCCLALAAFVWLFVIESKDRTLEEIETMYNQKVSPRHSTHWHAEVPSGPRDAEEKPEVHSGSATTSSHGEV
Briefly: radiolabelled sugar uptake in recombinant yeast, […] min; growth complementation.

The target of test [2] is T2, LAT-1 (NCU02188) (Neurospora crassa, UniProt Q7S4D2).
T2 construct: expressed from pRS426-type vector in hexose-transporter-null S. cerevisiae EBY.VW4000
T2 sequence (Q7S4D2 1-518): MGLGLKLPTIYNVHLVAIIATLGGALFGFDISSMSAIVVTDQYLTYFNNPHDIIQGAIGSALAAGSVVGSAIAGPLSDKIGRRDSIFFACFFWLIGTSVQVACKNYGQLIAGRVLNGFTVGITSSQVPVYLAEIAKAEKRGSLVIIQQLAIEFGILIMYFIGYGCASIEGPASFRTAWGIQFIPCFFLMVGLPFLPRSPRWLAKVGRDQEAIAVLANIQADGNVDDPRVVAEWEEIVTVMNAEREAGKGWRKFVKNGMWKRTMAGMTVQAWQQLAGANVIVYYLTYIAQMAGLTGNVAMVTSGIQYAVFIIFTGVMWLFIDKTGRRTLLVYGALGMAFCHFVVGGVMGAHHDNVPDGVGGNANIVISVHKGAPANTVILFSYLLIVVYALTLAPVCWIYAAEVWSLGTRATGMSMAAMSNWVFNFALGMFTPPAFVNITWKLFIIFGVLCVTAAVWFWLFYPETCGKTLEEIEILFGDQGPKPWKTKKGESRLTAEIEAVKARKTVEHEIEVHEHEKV
The test is described as above.

For test [3], the target named is T1, GLT-1 (NCU01633). Put plainly: radiolabelled sugar uptake in recombinant yeast, […] min.
In test [4] the target is T2, LAT-1 (NCU02188). The test is described as above.

As for `OC[C@H]1OC(O)[C@H](O)[C@@H](O)[C@@H]1O` (stereo partly drawn) [D-glucose], the “radiolabelled sugar uptake in recombinant yeast, 2 min; growth complementation” value is “D-glucose uptake was two orders of magnitude higher compared to that of D-xylose” on GLT-1 (NCU01633) [1] and “does complement growth of EBY.VW4000 strain on D-glucose, indicating this protein can transport D-glucose” at LAT-1 (NCU02188) [2].

On to `OC1OC[C@@H](O)[C@H](O)[C@H]1O` (stereo partly drawn) [D-xylose], for which the “radiolabelled sugar uptake in recombinant yeast, 2 min” value on GLT-1 (NCU01633) [3] is “D-glucose uptake was two orders of magnitude higher compared to that of D-xylose”.

In the case of `OC1OC[C@H](O)[C@H](O)[C@H]1O` (stereo partly drawn) [L-arabinose], the “radiolabelled sugar uptake in recombinant yeast, 2 min” value at LAT-1 (NCU02188) [4] is recorded as “the L-arabinose uptake rate was much higher than that of D-glucose”.
